Assay results reported in patent publication US20210361673A1, “COMPOSITIONS AND METHODS OF TREATING VIRAL INFECTIONS” (Lipocine Inc., priority 2020, published 2021).
Marks after values point to notes of the source that are not given here.

Assay: Mean marker change from baseline after treatment (TU, TT 14-day, TD single dose, TU depot injection, topical T after 7 days)
Format: in vivo
Settings: for Cmax to mean Cave ratio: range calculated from the average low and average high for the 5 arms tested
Excerpt: The mean marker change from baseline in the foregoing tables can be measured at various times including: hours after treatment commences, 7 to 14 days after treatment commences, and during treatment.
A-E are all the 14-day timepoint
TU Depot Injection—after Single Dose

CCCCCCCCCCCCC(=O)O[C@H]1CC[C@H]2[C@@H]3CCC4=CC(=O)CC[C@]4(C)[C@H]3CC[C@]12C [TT, testosterone tridecanoate]
Mean marker change from baseline in serum (e.g. IL-2, IL-6, TNF-Alpha, CRP, SHBG, MCP-1, AST, ALT, ALP) (total daily TT dose 300 mg): −5% to −35%
Cmax to mean Cave ratio (total daily TT dose 300 mg): 1.72-3.08*
Mean marker change from baseline in serum (e.g. IL-2, IL-6, TNF-Alpha, CRP, SHBG, MCP-1, AST, ALT, ALP) (total daily TT dose 2700 mg): −5% to −35%
Cmax to mean Cave ratio (total daily TT dose 2700 mg): 1.72-3.09*
